Test results: patent US9040530B2, “1,2,4-triazine-6-carboxamide kinase inhibitors” (Portola Pharmaceuticals, Inc., priority 2012, dated 2015)

The molecules below were run against T1, full length active recombinant SYK enzyme (Homo sapiens, UniProt P43405) (assay: Inhibition of Syk tyrosine phosphorylation activity (LANCE TR-FRET kinase assay)). Details: 1 nM active SYK enzyme, 550 nM SYK-substrate, 100 μM ATP, 1 hour at room temperature.
T1 construct: full length active recombinant SYK enzyme (Millipore, Calif.); purchased Millipore
Assay type: biochemical
CC(C)C[C@@H](Nc1nnc(C(N)=O)c(Nc2ccc(Cl)c(Cl)c2)n1)C(N)=O [Example 255, (R)-3-((1-amino-4-methyl-1-oxopentan-2-yl)amino)-5-((3,4-dichlorophenyl)amino)-1,2,4-triazine-6-carboxamide] gave an IC50 of 10 to 100 nM.
COc1cc(Nc2nc(N[C@@H]3CCOC[C@@H]3N)nnc2C(N)=O)ccc1Cl [Example 256, 3-(((3R,4R)-3-aminotetrahydro-2H-pyran-4-yl)amino)-5-((4-chloro-3-methoxyphenyl)amino)-1,2,4-triazine-6-carboxamide] was tested, and the IC50 was 10 to 100 nM.
Molecule NC(=O)c1nnc(N[C@@H]2CCOC[C@@H]2N)nc1Nc1cnc2cccnc2c1 [Example 257, 5-((1,5-naphthyridin-3-yl)amino)-3-(((3R,4R)-3-aminotetrahydro-2H-pyran-4-yl)amino)-1,2,4-triazine-6-carboxamide] has an IC50 of 100 to 1000 nM.
With NC(=O)c1nnc(N[C@@H]2CCCC[C@@H]2N)nc1Nc1cnc2cccnc2c1 [Example 258, 5-((1,5-naphthyridin-3-yl)amino)-3-(((1R,2S)-2-aminocyclohexyl)amino)-1,2,4-triazine-6-carboxamide] the IC50 was 10 to 100 nM.
